Measurements from patent US10520508B2, “Predictive baseline biomarkers for use of vascular disrupting agents” (BIONOMICS LIMITED, priority 2014, dated 2019).

How the values were obtained:
[1] = Disruptor-1 trial: BNC105P in combination with everolimus, maximum tolerated dose; type: in vivo, human (metastatic clear cell renal cell carcinoma patients); details: intravenous infusion over 10 minutes, days 1 and 8 of 21 day cycle, with 10 mg oral everolimus daily
Source text: The objective of the study was to determine the response rate of patients administered BNC105P (vascular disrupting agent) in combination with everolimus (mTOR inhibitor) in patients who had progressed from prior tyrosine kinase inhibitor therapy. In addition, the present inventors determined the improvement in 6-months progression free survival (PFS) with the addition of BNC105P to everolimus (Afinitor). A control group of patients received everolimus alone.
The medical histories of patients were obtained prior to commencement of the study.
Patients in the BNC105P in combination with everolimus study group (the “combination arm”) were administered 10 mg oral everolimus daily. On days 1 and 8 of the 21 day cycle period, the patients were administered 16 mg/m^2 BNC105P, which had been determined to be the maximum tolerated dose, by intravenous infusion over a 10 minute period (FIG. 1). Treatment was continued until disease progressed, intolerable toxicity became apparent, or until consent was withdrawn. A control group of patients were administered with everolimus alone.

[2] = test system: tumour endothelial cells (activated) and normal endothelial cells (quiescent); assay: Potency against activated (tumour) versus quiescent (normal) endothelial cells; type: cell-based; details: activated vs quiescent endothelial cells
tubulin = assay: Tubulin polymerisation inhibition; type: biochemical

Compound	maximum tolerated dose [1]	selectivity between activated (tumour) and quiescent (normal) endothelial cells [2]	tubulin polymerisation inhibition (tubulin)
COc1cc(C(=O)c2c(C)oc3c(OP(=O)([O-])[O-])c(OC)ccc23)cc(OC)c1OC.[Na+].[Na+] [BNC105P, disodium [6-methoxy-2-methyl-3-(3,4,5-trimethoxybenzoyl)-1-benzofuran-7-yl] phosphate]	16 mg/m^2		
COc1ccc(/C=C\c2cc(OC)c(OC)c(OC)c2)cc1O [Combretastatin A4, reference compound]		equally potent against quiescent and activated endothelial cells	
COc1cc(C(=O)c2c(C)oc3c(O)c(OC)ccc23)cc(OC)c1OC [formula III, 2-methyl-7-hydroxy-3-(3,4,5-trimethoxybenzoyl)-6-methoxybenzofuran]		show selectivity towards tumor endothelial cells (activated) over normal endothelial cells (quiescent)	potent tubulin polymerisation inhibitors
